Results from US7423025B2 (MUSC Foundation for Research Development, priority 2005, dated 2008).
“Also recorded” adds a separate entry of the source.

Legend:
L6 myoblasts = assay: Azide-induced Pasteur effect in L6 myoblasts measured by microphysiometer; assay type: cell-based; conditions: sodium azide 5 mM, 10 min exposure, normalized to first azide exposure 30 min prior
Experimental: FIG. 5 is a graph showing increase of the azide-induced Pasteur effect on L6 myoblasts by L-3′-AM-MECA (2) and L-3′-ADMdA (1). Percent changes in extracellular acidification rates upon treatment of L6 cells with sodium azide (5 mM) are shown. Responses are the average for 10 min exposure and these are normalized to the increase measured for the first exposure of the same cells to azide 30 min prior. Typically the second exposure causes a diminished Pasteur effect (see control). Error bars are SEM for n=3-5. * Statistically different from negative control (IR).
The ability of increasing the azide-induced Pasteur in L6 myoblasts was measured by microphysiometer.

[1] = test system: Langendorff perfused mouse heart; assay: Ischemia/reperfusion model on Langendorff perfused (isolated) mouse heart, cardioprotective activity; conditions: for maximum ischemic contracture, in words / time until onset of ischemic contracture, in words: 5 min pretreatment before 40 min ischemia; for cardiac tissue necrosis / infarction area by TTC staining, in words: 5 min pretreatment before ischemia-reperfusion; for infarction area (TTC staining, percentage of area) / maximum ischemic contracture: 5 min pretreatment; for infarction area (TTC staining, percentage of area) / maximum ischemic contracture / onset of contracture (time until onset of ischemic contracture): 40 min global ischemia; for infarction area (TTC staining, percentage of area): 60 min reperfusion, negative control 58.3±5.8%; for infarction area (TTC staining, percentage of area) / maximum ischemic contracture / onset of contracture (time until onset of ischemic contracture) / functional recovery (% rate pressure product): Mean±SEM; for maximum ischemic contracture: negative control 105.0±6.8 cmH2O; for onset of contracture (time until onset of ischemic contracture): negative control 10.5±1.0 min; for functional recovery (% rate pressure product): after 40 min ischemia and reperfusion, negative control 21.3±1.4; for functional recovery of contractility (% RPP), in words: upon reperfusion after 40 min ischemia
[2] = test system: mammalian nucleoside transporters; conditions: cited from earlier work
[3] = molecular target: S-adenosyl-L-homocysteine hydrolase (Homo sapiens, UniProt P23526); conditions: cited from earlier work
Chain of S-adenosyl-L-homocysteine hydrolase (P23526 whole entry, species assumed): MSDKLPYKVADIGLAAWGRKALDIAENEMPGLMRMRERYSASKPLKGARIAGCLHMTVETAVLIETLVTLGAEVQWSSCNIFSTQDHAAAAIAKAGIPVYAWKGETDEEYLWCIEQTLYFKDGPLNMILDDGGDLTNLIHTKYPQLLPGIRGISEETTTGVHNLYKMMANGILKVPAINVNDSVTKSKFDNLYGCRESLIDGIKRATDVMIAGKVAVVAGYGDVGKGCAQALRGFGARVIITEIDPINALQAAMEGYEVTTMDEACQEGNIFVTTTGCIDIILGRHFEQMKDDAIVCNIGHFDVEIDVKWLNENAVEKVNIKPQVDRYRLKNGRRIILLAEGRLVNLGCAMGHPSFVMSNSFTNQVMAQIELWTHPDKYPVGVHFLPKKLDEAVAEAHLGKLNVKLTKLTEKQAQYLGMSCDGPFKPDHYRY

With `OC[C@H]1O[C@@H](n2cnc3c(NC4CCCC4)nc(Cl)nc32)[C@H](O)[C@@H]1O` [CCPA, reference compound] the “increase of azide-induced Pasteur effect (extracellular acidification rate)” value (shortened to “increase of azide-induced Pasteur effect”) (L6 myoblasts) was 19%.

In the case of `CN(C)c1ncnc2c1ncn2[C@H]1O[C@@H](CO)[C@H](N)[C@@H]1O` [Compound 1, L-3′-amino-3′-deoxy-N^6-dimethyladenosine], the “increase of azide-induced Pasteur effect” value (L6 myoblasts) is reported as 136%, the “maximum ischemic contracture, in words” value [1] is reported as “significant decrease of maximum ischemic contracture; also recorded: significantly decreased maximum ischemic contracture” and the “time until onset of ischemic contracture, in words” value (“time until onset … in words” below) [1] is reported as “increasing the time until onset of ischemic contracture”. The “cardiac tissue necrosis / infarction area by TTC staining, in words” value [1] was “protective effect that is comparable or higher than adenosine; also recorded: showed decrease of cardiac tissue necrosis”, the “infarction area (TTC staining, percentage of area)” value [1] was 39.8±5.7% and the maximum ischemic contracture [1] was 74.3±7.8 cmH2O. For the same molecule, the “onset of contracture (time until onset of ischemic contracture)” value [1] was 14.5 ± 0.9 min, the “functional recovery (% rate pressure product)” value [1] was 32.2±3.7 cmH2O/s % rate pressure product and the “cardiac standstill during treatment” value ([1]; during 5 min perfusion before ischemia, adenosine at 50 μM) was “neither showed cardiac standstill during treatment; also recorded: neither (1) nor (2) induce cardiac standstill”. The “functional recovery of contractility (% RPP), in words” value [1] was “significant functional recovery of contractility”.

With `CNC(=O)[C@@H]1O[C@H](n2cnc3c(NC)ncnc32)[C@@H](O)[C@H]1N` [Compound 2, L-3′-amino-3′-deoxy-N^6-methyladenosine-5′-N-methyluronamide] the “increase of azide-induced Pasteur effect” value (L6 myoblasts) was 128%, the “maximum ischemic contracture, in words” value [1] was “significant decrease of maximum ischemic contracture; also recorded: significantly decreased maximum ischemic contracture” and the “time until onset … in words” value [1] was “does not show a significant effect; also recorded: did not significantly alter this parameter”. For the same molecule, the “cardiac tissue necrosis / infarction area by TTC staining, in words” value [1] was “protective effect that is comparable or higher than adenosine; also recorded: showed decrease of cardiac tissue necrosis”, the “infarction area (TTC staining, percentage of area)” value [1] was 31.8±5.4% and the maximum ischemic contracture [1] was 87.6±6.3 cmH2O. For the same molecule, the “functional recovery of contractility (% RPP), in words” value [1] was “did not show significant functional recovery” and the “functional recovery of contractility (% RPP), in words” value ([1]; listed as L-3′-AM-MECA) was “did not show any significant effect”.

For `Nc1ncnc2c1ncn2[C@H]1O[C@@H](CO)[C@H](O)[C@@H]1O` [L-adenosine], the “interaction with mammalian nucleoside transporters” value [2] is given as “does not interact” and the “activity on animal enzymes such as S-adenosyl-L-homocysteine hydrolase” value [3] is given as “inactive”.

In the case of `CNC(=O)[C@H]1O[C@@H](n2cnc3c(N)ncnc32)[C@H](O)[C@@H]1O` [MECA, reference compound], the “increase of azide-induced Pasteur effect” value (L6 myoblasts) is reported as 115%.

For `Nc1ncnc2c1ncn2[C@@H]1O[C@H](CO)[C@@H](O)[C@H]1O` [adenosine, reference compound], the “maximum ischemic contracture, in words” value [1] was “lower maximal”, the “time until onset … in words” value [1] was “delayed time until onset of ischemic contracture” and the “cardiac tissue necrosis / infarction area by TTC staining, in words” value [1] was “significantly less evidence of necrosis”. The “infarction area (TTC staining, percentage of area)” value [1] was 24.6±5.8%, the maximum ischemic contracture [1] was 74.1±15.6 cmH2O and the “onset of contracture (time until onset of ischemic contracture)” value [1] was 13.6 ± 0.6 min. The “functional recovery (% rate pressure product)” value [1] was 30.7±3.4 cmH2O/s % rate pressure product and the “functional recovery of contractility (% RPP), in words” value [1] was “significantly increased recovery of function”.
